Measured values reported in patent US5451506A, “Oncostatin M and novel compositions having anti-neoplastic activity” (Oncogen Limited Partnership, priority 1993, dated 1995).
Values joined by “and” are separate entries in the source; they are usually repeats but may differ in a detail not shown here. Equal entries are not always repeated.

What was measured:
A375 melanoma cells = assay: Cell growth modulatory assay using 3H-thymidine incorporation into DNA (GIA); type: cell-based, human; set-up: Observed % Inhibition of 3H-TdR Incorporation: concentration or dose not given beside the values
Procedure: (§1) The assays were performed in 96 flat well plates (Costar 3596). Human melanoma cells (A375) (3×10^3 /100 μl) or cells from another cell line of interest were at an appropriate cell density used. Cells in 100 μl growth medium were placed in each well. Three hours later, 100 μl of test sample in growth medium was added to each well. Plates were incubated at 37° C. for 3 days. Then 25 μl (0.5 μCi) of a solution of ^3 H-thymidine (specific activity 27 μCi/μg) was added to each well for the final 6 hours of incubation. The cells were then transferred to glass filter strips using a multiwell harvester (PHD Cell Harvester, Cambridge Technology, Inc.). The filters were transferred to scintillation vials. Two ml of scintillation fluid (ScientiVerse II, Fisher Scientific Co.) was added and the samples counted in a scintillation counter to quantitate ^3 H-thymidine incorporation.

SK-MEL28 melanoma cells = assay: as above; type: cell-based, human
Procedure: as §1
(§2) Human tumor cells (A375 melanoma cells, A549 lung cancer cells, HBT10 neuroblastoma cells, and SK-MEL28 melanoma cells) were seeded at 3×10^3 cells/well and normal fibroblasts (WI26 cells and WI38 cells) at 1.5×10^3 cells/well in 96-well plates. Various concentrations of purified Oncostatin M, obtained from the fraction from the C18^3 column with peak antiproliferative activity against A375 cells were used. The assay was performed as described in Example 1B above.

WI26 fibroblasts = assay: as above; type: cell-based, human
Procedure: as §1, §2

WI38 fibroblasts = assay: as above; type: cell-based, human
Procedure: as §1, §2

A375 tumor cells = assay: Inhibition of growth of A375 tumors in nude mice; type: in vivo; conditions: for Cumulative Tumor Size: 3 mice
Procedure: A375 tumor cells (2.3×10^6) or an appropriate number of cells of another cell line of interest were injected subcutaneously in the interscapular region of nude mice. When the tumors became palpable, half of the mice were inoculated subcutaneously proximal to the tumor with either (a) 100 μl PBS containing 1.6 μg bovine serum albumin (BSA) or (b) 100 μl PBS containing 1.6 μg BSA plus the test sample. The mice were inoculated in the same manner every 2-3 days until about 19 days after the first inoculation. The diameter and width of each tumor was measured every 2-3 days using calipers.
Six nude mice were injected with A375 cells as described in Example 1D, above. After the tumors became palpable, the mice were injected, proximal to the tumor, with PBS (control) or PBS containing 400 ng Oncostatin M, three mice in each group.
The cumulative sizes (mm^2) of the tumors in each group of three mice were determined every 2-3 days.

A375 cells [1] = assay: Growth inhibition assay (A375 proliferation; synergy tests); type: cell-based, human; conditions: 1.8 U/ml, alone
Procedure: A375 melanoma cells (4×10^3 cells/50 μl), Mv1Lu mink lung epithelial cells (3.5×10^3 cells/50 μl), or other cell line of interest at an appropriate cell density were subcultured for four hours on flat-bottomed 96-well tissue culture plates (Costar 3596, Cambridge, Mass.) in growth medium comprising Dulbecco's modified Eagle's medium (DMEM), supplemented with 10% heat-in-activated fetal bovine serum, and P/S. Test samples to be assayed for growth inhibition were diluted in growth medium and assayed in triplicate with 50 μl of the diluted sample added to each well. The cells were incubated for 72 hours at 37° C.
The growth inhibitory activity of highly purified TGF-β1, recombinant gamma-interferon (rIFN-γ), and Oncostatin M on A375 cells was determined, and possible synergy between TGF-β1 and Oncostatin M, TGF-β1 and rIFN-γ, and Oncostatin M and rIFN-γ in inhibiting A375 proliferation was tested. […] is expressed in units of Mv1Lu growth inhibitory activity, rIFN-γ in units of anti-viral activity and Oncostatin M in units of A375 growth inhibitory activity. Concentrations of TGF-β1 (1-30 U/ml) and Oncostatin M (0.5-10 U/ml) were chosen which caused either no or only minimal growth inhibition when tested individually.

Mouse L929 cells = assay: Effect on mouse L929 cells; type: cell-based; conditions: mouse L929 cells, sensitive to tumor necrosis factor
Procedure: The ability of PBL-derived Oncostatin M to affect replication of a variety of cells was also investigated. Mouse L929 cells were insenstive to PBL-derived Oncostatin M using up to 1000 GIA units/ml. Growth of human fibroblasts, WI26, was stimulated by treatment with 1000 GIA units/ml. Normal human T-lymphocyte proliferation at 72 hours post mitogenesis was not affected by up to 500 GIA units/ml.

A375 cells [2] = assay: Effect of acid, base and heat treatments on tumor growth inhibitory activity; type: cell-based, human
Procedure: as §1
U937 cells (RPMI 1640+5% FCS seeded at 7.5×10^5 cells/ml) were treated with TPA (10 ng/ml) for 3 days. The cells were then washed with medium (serum-free RPMI 1640) and incubated for 24 hr in serum-free (serum-free RPMI 1640) medium before collecting the supernatants. The supernatants were treated with 1N acetic acid or 1N ammonium hydroxide. They were then dialyzed against medium (serum-free RPMI 1640) and tested for their ability to inhibit ^3 H-thymidine incorporation into A375 cells using the assay as described in Example 1B

[3] = test system: human proliferative or cytotoxic T cell responses; assay: Mixed leukocyte culture reactions (MLC); type: cell-based; conditions: 500 GIA units/ml

Oncostatin M: Human polypeptide growth regulator produced by activated leukocytes; apparent molecular weight approximately 28 kD by PAGE
GIA Units to Cause 30% Inhibition 3H-TDR Incorporation (A375 melanoma cells; A375 (melanoma)): 0.3 GIA Units | concentration to cause 30% inhibition 3H-TdR (A375 melanoma cells; A375, based upon the specific activity of purified Oncostatin M): ~0.015 ng/mL | Observed % Inhibition of 3H-TdR Incorporation (A375 melanoma cells; A375 Cells): 17% | % Inhibition of 3H-thymidine incorporated (A375 melanoma cells; Exp. 1, A375, 1 GIA units/well): 46% | % Inhibition of 3H-thymidine incorporated (A375 melanoma cells; Exp. 1, A375, 4 GIA units/well): 62% | % Inhibition of 3H-thymidine incorporated (A375 melanoma cells; Exp. 1, A375, 16 GIA units/well): 83% | % Inhibition of 3H-thymidine incorporated (A375 melanoma cells; Exp. 2, A375, 3 GIA units/well): 76% | % Inhibition of 3H-thymidine incorporated (A375 melanoma cells; Exp. 2, A375, 9 GIA units/well): 87% | % Inhibition of 3H-thymidine incorporated (A375 melanoma cells; Exp. 3, A375, 8 GIA units/well): 71% | % Inhibition of 3H-thymidine incorporated (A375 melanoma cells; Exp. 3, A375, 25 GIA units/well): 85% | % Inhibition of 3H-thymidine incorporated (A375 melanoma cells; Exp. 3, A375, 75 GIA units/well): 89% | % Inhibition of 3H-thymidine incorporated (A375 melanoma cells; Exp. 4, A375, 1 GIA units/well): 59% | % Inhibition of 3H-thymidine incorporated (A375 melanoma cells; Exp. 4, A375, 5 GIA units/well): 75% | % Inhibition of 3H-thymidine incorporated (A375 melanoma cells; Exp. 4, A375, 20 GIA units/well): 87% | Growth inhibitory activity contained in the fraction (A375 melanoma cells; apparently homogeneous C18^3 fraction, approximately 300 ng protein): about 40,000 GIA units | Proliferation of A375 cells (A375 melanoma cells; protein electroeluted from the 28 kD band, non-reducing PAGE): inhibit proliferation of A375 cells | % Inhibition of 3H-thymidine incorporated (SK-MEL28 melanoma cells; Exp. 4, SK-MEL28, 1 GIA units/well): 11% | % Inhibition of 3H-thymidine incorporated (SK-MEL28 melanoma cells; Exp. 4, SK-MEL28, 5 GIA units/well): 25% | % Inhibition of 3H-thymidine incorporated (SK-MEL28 melanoma cells; Exp. 4, SK-MEL28, 20 GIA units/well): 44% | % Stimulation of 3H-thymidine incorporated (WI26 fibroblasts; Exp. 2, WI26, 3 GIA units/well): 52% | % Stimulation of 3H-thymidine incorporated (WI26 fibroblasts; Exp. 2, WI26, 9 GIA units/well): 36% | % Stimulation of 3H-thymidine incorporated (WI26 fibroblasts; Exp. 2, WI26, 27 GIA units/well): 46% | Cytotoxic activity (WI26 fibroblasts; WI26 human fibroblasts): lacks cytotoxic activity | % Stimulation of 3H-thymidine incorporated (WI38 fibroblasts; Exp. 1, WI38, 1 GIA units/well): 46% | % Stimulation of 3H-thymidine incorporated (WI38 fibroblasts; Exp. 1, WI38, 4 GIA units/well): 30% | % Stimulation of 3H-thymidine incorporated (WI38 fibroblasts; Exp. 1, WI38, 16 GIA units/well): 25% | Cytotoxic activity (WI38 fibroblasts; WI38 human fibroblasts): lacks cytotoxic activity | Tumor size relative to control animals (A375 tumor cells; 400 ng Oncostatin M vs PBS): about half the size of those in control animals | Tumor weight relative to control-treated mice (A375 tumor cells; 400 ng Oncostatin M vs PBS, after 21 days): approximately one-third the weight of the tumors from the control-treated mice | Cumulative Tumor Size (A375 tumor cells; day 0 after treatment, 400 ng, PBS 70): 50 mm^3 | Cumulative Tumor Size (A375 tumor cells; day 3 after treatment, 400 ng, PBS 116): 64 mm^3 | Cumulative Tumor Size (A375 tumor cells; day 5 after treatment, 400 ng, PBS 130): 66 mm^3 | Cumulative Tumor Size (A375 tumor cells; day 7 after treatment, 400 ng, PBS 160): 90 mm^3 | Cumulative Tumor Size (A375 tumor cells; day 10 after treatment, 400 ng, PBS 180): 88 mm^3 | Cumulative Tumor Size (A375 tumor cells; day 12 after treatment, 400 ng, PBS 210): 100 mm^3 | Cumulative Tumor Size (A375 tumor cells; day 14 after treatment, 400 ng, PBS 268): 116 mm^3 | Cumulative Tumor Size (A375 tumor cells; day -1 after treatment, 400 ng s.c. proximal to tumor every 2-3 days, PBS 30): 30 mm^3 | Tumor Wt (A375 tumor cells; individual mice (No. 94, 97, 95) after 21 days, PBS mice 540, 440, 480): 100 mg and 140 mg and 200 mg | Inhibition of cell growth (A375 cells [1]): 12% | Cytotoxic activity (Mouse L929 cells): lacks cytotoxic activity | Resistance to inactivation by acid and base (A375 cells [2]; 1N acetic acid and 1N ammonium hydroxide, dialyzed supernatant): substantially resistant to inactivation | Heat stability of activity (A375 cells [2]; 56° C. for 1 hr): retain its activity | Heat stability of activity (A375 cells [2]; 95° C. for 30 min): lose substantially all its activity | Proliferative or cytotoxic T cell responses in MLC [3]: does not suppress
